Experimental data: US20240116985A1, “STAPLED PEPTIDES AND METHODS THEREOF” (priority 2020, published 2024)
Values after ≈ are worked out from the molar mass of the structure shown. Where two headings read alike, the source gives them in different places.

Key:
[1] = CHI Log D procedure; assay type: physicochemical; conditions: for CHI Log D: pH 7.4; for chromatographic logD: pH 7.4, CHI Log D
[2] = Solubility in PBS; assay type: physicochemical
In short: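 Steps: ultracentrifuge the peptide PBS solution, inject the supernatant on HPLC, inject a 50 μM peptide DMSO solution as reference, then calculate solubility as area ratio (PBS/DMSO) × 50 uM.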

[3] = target: T1, full-length beta-Catenin (Uniprot ID P35222) (Homo sapiens, UniProt P35222); experiment: Fluorescence polarization IC50 (beta-catenin / 5FAM-TCF4 10-53 competition); assay type: binding
T1 construct: 10 nM full-length beta-Catenin (Uniprot ID P35222)
T1 sequence (P35222 1-781): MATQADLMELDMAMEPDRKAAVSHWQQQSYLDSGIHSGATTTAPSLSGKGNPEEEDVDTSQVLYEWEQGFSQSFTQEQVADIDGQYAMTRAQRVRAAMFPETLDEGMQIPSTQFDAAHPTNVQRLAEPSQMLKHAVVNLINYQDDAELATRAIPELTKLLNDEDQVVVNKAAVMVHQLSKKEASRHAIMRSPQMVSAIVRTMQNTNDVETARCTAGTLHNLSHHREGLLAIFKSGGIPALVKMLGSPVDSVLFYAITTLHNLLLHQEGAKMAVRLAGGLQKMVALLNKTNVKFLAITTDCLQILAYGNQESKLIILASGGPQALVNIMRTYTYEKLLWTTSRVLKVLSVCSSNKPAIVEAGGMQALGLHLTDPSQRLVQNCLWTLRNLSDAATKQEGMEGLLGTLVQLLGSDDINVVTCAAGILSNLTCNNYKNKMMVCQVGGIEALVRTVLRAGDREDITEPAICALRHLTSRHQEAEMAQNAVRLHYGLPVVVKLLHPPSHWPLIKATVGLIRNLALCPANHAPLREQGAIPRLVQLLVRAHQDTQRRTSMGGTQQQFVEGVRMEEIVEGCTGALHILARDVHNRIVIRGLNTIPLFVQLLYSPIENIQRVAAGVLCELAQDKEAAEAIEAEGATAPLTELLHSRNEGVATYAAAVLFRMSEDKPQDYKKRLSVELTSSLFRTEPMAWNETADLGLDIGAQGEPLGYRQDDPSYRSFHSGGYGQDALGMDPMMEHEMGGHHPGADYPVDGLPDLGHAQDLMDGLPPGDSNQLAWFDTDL

[4] = fluorescence polarization, read-out: beta-Catenin FP IC50

Structure (SMILES)	CHI Log D [1]	Solubility [2] [µM]	IC50 [3, 4] [nM]	IC50 ([3]; read-out: FP EC50) [nM]	chromatographic logD [1]	Solubility ([2]; Solubility (uM)) [µM]
CC[C@H](C)[C@@H]1NC(=O)[C@H](CC(=O)O)NC(=O)[C@]2(CC=CCCCC3(CCCC=CCCCCCC[C@@](C)(C(=O)N[C@@H](Cc4ccccc4)C(=O)N[C@@H](Cc4csc5ccccc45)C(=O)N[C@@H](CCC(N)=O)C(N)=O)NC(=O)[C@H](CCC(N)=O)NC(=O)[C@H](Cc4ccccc4)NC(=O)[C@H](CC(C)C)NC(=O)[C@H](C)NC(=O)[C@H](CCC(=O)O)NC(=O)[C@H](CC(=O)O)NC3=O)NC1=O)CCCN2C(C)=O (stereo partly drawn) [I-658, Ac-PL3-Asp-Ile-B5-Asp-Glu-Ala-Leu-Phe-Gln-S8-Phe-BztA-Gln-NH2]	2.859	48 (≈ 92.4 µg/mL)	546	546		
CC[C@H](C)[C@@H]1NC(=O)[C@H](CC(=O)O)NC(=O)[C@]2(CC=CCCCC3(CCCC=CCCCCCC[C@@](C)(C(=O)N[C@@H](Cc4ccccc4)C(=O)N[C@@H](Cc4csc5ccccc45)C(=O)N[C@@H](CCC(N)=O)C(N)=O)NC(=O)[C@H](CCC(N)=O)NC(=O)[C@H](Cc4ccccc4)NC(=O)[C@H](CO)NC(=O)[C@H](C)NC(=O)[C@H](CCC(=O)O)NC(=O)[C@H](CC(=O)O)NC3=O)NC1=O)CCCN2C(C)=O (stereo partly drawn) [I-661, Ac-PL3-Asp-Ile-B5-Asp-Glu-Ala-Ser-Phe-Gln-S8-Phe-BztA-Gln-NH2]	2.099	45 (≈ 85.5 µg/mL)	45	45		
CC[C@H](C)[C@@H]1NC(=O)[C@H](CC(=O)O)NC(=O)[C@]2(CC=CCCCC3(CCCC=CCCCCCC[C@@](C)(C(=O)N[C@@H](Cc4ccccc4)C(=O)N[C@@H](Cc4csc5ccccc45)C(=O)N[C@@H](CCC(N)=O)C(N)=O)NC(=O)[C@H](CCC(N)=O)NC(=O)[C@H](Cc4ccccc4)NC(=O)[C@H](Cc4c[nH]c5ccccc45)NC(=O)[C@H](C)NC(=O)[C@H](CCC(=O)O)NC(=O)[C@H](CC(=O)O)NC3=O)NC1=O)CCCN2C(C)=O (stereo partly drawn) [I-665, Ac-PL3-Asp-Ile-B5-Asp-Glu-Ala-Trp-Phe-Gln-S8-Phe-BztA-Gln-NH2]	2.448	47 (≈ 93.9 µg/mL)	923	923		
CC(=O)N1CCC[C@]12CC=CCCCC1(CCCC=CCCCCCC[C@@](C)(C(=O)N[C@@H](Cc3ccsc3)C(=O)N[C@@H](Cc3csc4ccccc34)C(=O)N[C@@H](CCC(N)=O)C(N)=O)NC(=O)[C@H](CC(N)=O)NC(=O)[C@H](Cc3ccccc3)NC(=O)[C@H](C)NC(=O)[C@H](C)NC(=O)[C@H](CCC(=O)O)NC(=O)[C@H](CC(=O)O)NC1=O)NC(=O)[C@H](CC(C)(C)C)NC(=O)[C@H](CC(=O)O)NC2=O (stereo partly drawn) [I-682, Ac-PL3-Asp-Npg-B5-Asp-Glu-Ala-Ala-Phe-Asn-S8-3Thi-BztA-Gln-NH2]	2.409	47 (≈ 88.8 µg/mL)	41	41		
CC(=O)N1CCC[C@]12CC=CCCCC1(CCCC=CCCCOC(=O)N3CC[C@@](C(=O)N[C@@H](Cc4ccsc4)C(=O)N[C@@H](Cc4csc5ccccc45)C(=O)N[C@@H](Cc4c[nH]cn4)C(N)=O)(C3)NC(=O)[C@H](CC(N)=O)NC(=O)[C@H](Cc3ccccc3)NC(=O)[C@H](C)NC(=O)[C@H](C)NC(=O)[C@H](CCC(=O)O)NC(=O)[C@H](CC(=O)O)NC1=O)NC(=O)[C@H](CC(C)(C)C)NC(=O)[C@H](CC(=O)O)NC2=O (stereo partly drawn) [I-698, Ac-PL3-Asp-Npg-B5-Asp-Glu-Ala-Ala-Phe-Asn-PyrS2-3Thi-BztA-His-NH2]	2.153	43 (≈ 83.5 µg/mL)	5			

Continued by falling IC50 [3, 4], values first:

CHI Log D [1]	Solubility [2] [µM]	IC50 [3, 4] [nM]	IC50 ([3]; read-out: FP EC50) [nM]	chromatographic logD [1]	Solubility ([2]; Solubility (uM)) [µM]	Structure (SMILES)
2.433	45 (≈ 89.9 µg/mL)	996	996			CC[C@H](C)[C@@H]1NC(=O)[C@H](CC(=O)O)NC(=O)[C@]2(CC=CCCCC3(CCCC=CCCCCCC[C@@](C)(C(=O)N[C@@H](Cc4ccccc4)C(=O)N[C@@H](Cc4csc5ccccc45)C(=O)N[C@@H](CCC(N)=O)C(N)=O)NC(=O)[C@H](CCC(N)=O)NC(=O)[C@H](Cc4ccccc4)NC(=O)[C@H](Cc4c[nH]c5ccccc45)NC(=O)[C@H](C)NC(=O)[C@H](CCC(=O)O)NC(=O)[C@H](CC(=O)O)NC3=O)NC1=O)CCCN2C(C)=O (stereo partly drawn) [I-664, Ac-PL3-Asp-Ile-B5-Asp-Glu-Ala-Trp-Phe-Gln-S8-Phe-BztA-Gln-NH2]
		544		2.75	45 (≈ 88.2 µg/mL)	CC[C@H](C)[C@@H]1NC(=O)[C@H](CC(=O)O)NC(=O)[C@]2(CC=CCCCC3(CCCC=CCCCCCC[C@@](C)(C(=O)N[C@@H](Cc4ccccc4)C(=O)N[C@@H](Cc4csc5ccccc45)C(=O)N[C@@H](CCC(N)=O)C(N)=O)NC(=O)[C@H](CCC(N)=O)NC(=O)[C@H](Cc4ccccc4)NC(=O)[C@H](Cc4ccccc4)NC(=O)[C@H](C)NC(=O)[C@H](CCC(=O)O)NC(=O)[C@H](CC(=O)O)NC3=O)NC1=O)CCCN2C(C)=O (stereo partly drawn) [I-660, Ac-PL3-Asp-Ile-B5-Asp-Glu-Ala-Phe-Phe-Gln-S8-Phe-BztA-Gln-NH2]
2.903	48 (≈ 92.4 µg/mL)	430	430			CC[C@H](C)[C@@H]1NC(=O)[C@H](CC(=O)O)NC(=O)[C@]2(CC=CCCCC3(CCCC=CCCCCCC[C@@](C)(C(=O)N[C@@H](Cc4ccccc4)C(=O)N[C@@H](Cc4csc5ccccc45)C(=O)N[C@@H](CCC(N)=O)C(N)=O)NC(=O)[C@H](CCC(N)=O)NC(=O)[C@H](Cc4ccccc4)NC(=O)[C@H](CC(C)C)NC(=O)[C@H](C)NC(=O)[C@H](CCC(=O)O)NC(=O)[C@H](CC(=O)O)NC3=O)NC1=O)CCCN2C(C)=O (stereo partly drawn) [I-659, Ac-PL3-Asp-Ile-B5-Asp-Glu-Ala-Leu-Phe-Gln-S8-Phe-BztA-Gln-NH2]
		76		2.75	40 (≈ 79.3 µg/mL)	CC[C@H](C)[C@@H]1NC(=O)[C@H](CC(=O)O)NC(=O)[C@]2(CC=CCCCC3(CCCC=CCCCCCC[C@@](C)(C(=O)N[C@@H](Cc4ccsc4)C(=O)N[C@@H](Cc4csc5ccccc45)C(=O)N[C@@H](Cc4c[nH]cn4)C(N)=O)NC(=O)[C@H](CC(N)=O)NC(=O)[C@H](Cc4ccccc4)NC(=O)[C@H](C)NC(=O)[C@H](C)NC(=O)[C@H](CN(CC(=O)O)CC(F)(F)F)NC(=O)[C@H](CC(=O)O)NC3=O)NC1=O)CCCN2C(C)=O (stereo partly drawn) [I-702, Ac-PL3-Asp-Ile-B5-Asp-TfeGA-Ala-Ala-Phe-Asn-S8-3Thi-BztA-His-NH2]
		43		1.8	42 (≈ 81.5 µg/mL)	CC[C@H](C)[C@@H]1NC(=O)[C@H](CC(=O)O)NC(=O)[C@]2(CC=CCCCC3(CCCC=CCCCCCC[C@@](C)(C(=O)N[C@@H](Cc4ccccc4)C(=O)N[C@@H](Cc4csc5ccccc45)C(=O)N[C@@H](CCC(N)=O)C(N)=O)NC(=O)[C@H](CCC(N)=O)NC(=O)[C@H](Cc4ccccc4)NC(=O)[C@H](CCC(N)=O)NC(=O)[C@H](C)NC(=O)[C@H](CCC(=O)O)NC(=O)[C@H](CC(=O)O)NC3=O)NC1=O)CCCN2C(C)=O (stereo partly drawn) [I-663, Ac-PL3-Asp-Ile-B5-Asp-Glu-Ala-Gln-Phe-Gln-S8-Phe-BztA-Gln-NH2]
	50 (≈ 98.3 µg/mL)	43		2.63		CC[C@H](C)[C@@H]1NC(=O)[C@H](CC(=O)O)NC(=O)[C@]2(CC=CCCCC3(CCCC=CCCCCCC[C@@](C)(C(=O)N[C@@H](Cc4ccccc4)C(=O)N[C@@H](Cc4csc5ccccc45)C(=O)N[C@@H](CCC(N)=O)C(N)=O)NC(=O)[C@H](CC(N)=O)NC(=O)[C@H](Cc4ccccc4)NC(=O)[C@H](C)NC(=O)[C@H](C)NC(=O)[C@H](CN(CC(=O)O)CC(F)(F)F)NC(=O)[C@H](CC(=O)O)NC3=O)NC1=O)CCCN2C(C)=O (stereo partly drawn) [I-699, Ac-PL3-Asp-Ile-B5-Asp-TfeGA-Ala-Ala-Phe-Asn-S8-Phe-BztA-Gln-NH2]
